From patent publication US12187742B2 (XRAD Therapeutics, Inc., priority 2018, dated 2025)
Counter-ions that a name gives are not always drawn.

Tests used:
DNA-PK = DNA-PK (Homo sapiens (Human), UniProt P78527); assay: DNA-PK Enzyme-Linked Immunosorbent Assay (phosphorylation of GST-p53 (1-101) peptide); format: biochemical; settings: ELISA, ATP 20 μM
Procedure, shortened: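 ELISA with plate-bound GST-p53 (1-101) phosphorylated by DNA-PK (0.1 μg/mL final) with 20 μM ATP for 1 h at 25 °C. Compounds tested over 10 3-fold doses from 100 nM top final. Phospho-p53 Ser15 detected by antibody, HRP and TMB, absorbance at 450 nm.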

ATM = ATM (Homo sapiens (Human), UniProt Q13315); assay: ATM in Cell Western Assay (pKAP1 in etoposide-treated MCF-7 cells); format: cell-based; settings: MCF-7 cells, etoposide 100 μM, 1 hr, pKAP1 readout
Sequence of ATM (Q13315 whole entry): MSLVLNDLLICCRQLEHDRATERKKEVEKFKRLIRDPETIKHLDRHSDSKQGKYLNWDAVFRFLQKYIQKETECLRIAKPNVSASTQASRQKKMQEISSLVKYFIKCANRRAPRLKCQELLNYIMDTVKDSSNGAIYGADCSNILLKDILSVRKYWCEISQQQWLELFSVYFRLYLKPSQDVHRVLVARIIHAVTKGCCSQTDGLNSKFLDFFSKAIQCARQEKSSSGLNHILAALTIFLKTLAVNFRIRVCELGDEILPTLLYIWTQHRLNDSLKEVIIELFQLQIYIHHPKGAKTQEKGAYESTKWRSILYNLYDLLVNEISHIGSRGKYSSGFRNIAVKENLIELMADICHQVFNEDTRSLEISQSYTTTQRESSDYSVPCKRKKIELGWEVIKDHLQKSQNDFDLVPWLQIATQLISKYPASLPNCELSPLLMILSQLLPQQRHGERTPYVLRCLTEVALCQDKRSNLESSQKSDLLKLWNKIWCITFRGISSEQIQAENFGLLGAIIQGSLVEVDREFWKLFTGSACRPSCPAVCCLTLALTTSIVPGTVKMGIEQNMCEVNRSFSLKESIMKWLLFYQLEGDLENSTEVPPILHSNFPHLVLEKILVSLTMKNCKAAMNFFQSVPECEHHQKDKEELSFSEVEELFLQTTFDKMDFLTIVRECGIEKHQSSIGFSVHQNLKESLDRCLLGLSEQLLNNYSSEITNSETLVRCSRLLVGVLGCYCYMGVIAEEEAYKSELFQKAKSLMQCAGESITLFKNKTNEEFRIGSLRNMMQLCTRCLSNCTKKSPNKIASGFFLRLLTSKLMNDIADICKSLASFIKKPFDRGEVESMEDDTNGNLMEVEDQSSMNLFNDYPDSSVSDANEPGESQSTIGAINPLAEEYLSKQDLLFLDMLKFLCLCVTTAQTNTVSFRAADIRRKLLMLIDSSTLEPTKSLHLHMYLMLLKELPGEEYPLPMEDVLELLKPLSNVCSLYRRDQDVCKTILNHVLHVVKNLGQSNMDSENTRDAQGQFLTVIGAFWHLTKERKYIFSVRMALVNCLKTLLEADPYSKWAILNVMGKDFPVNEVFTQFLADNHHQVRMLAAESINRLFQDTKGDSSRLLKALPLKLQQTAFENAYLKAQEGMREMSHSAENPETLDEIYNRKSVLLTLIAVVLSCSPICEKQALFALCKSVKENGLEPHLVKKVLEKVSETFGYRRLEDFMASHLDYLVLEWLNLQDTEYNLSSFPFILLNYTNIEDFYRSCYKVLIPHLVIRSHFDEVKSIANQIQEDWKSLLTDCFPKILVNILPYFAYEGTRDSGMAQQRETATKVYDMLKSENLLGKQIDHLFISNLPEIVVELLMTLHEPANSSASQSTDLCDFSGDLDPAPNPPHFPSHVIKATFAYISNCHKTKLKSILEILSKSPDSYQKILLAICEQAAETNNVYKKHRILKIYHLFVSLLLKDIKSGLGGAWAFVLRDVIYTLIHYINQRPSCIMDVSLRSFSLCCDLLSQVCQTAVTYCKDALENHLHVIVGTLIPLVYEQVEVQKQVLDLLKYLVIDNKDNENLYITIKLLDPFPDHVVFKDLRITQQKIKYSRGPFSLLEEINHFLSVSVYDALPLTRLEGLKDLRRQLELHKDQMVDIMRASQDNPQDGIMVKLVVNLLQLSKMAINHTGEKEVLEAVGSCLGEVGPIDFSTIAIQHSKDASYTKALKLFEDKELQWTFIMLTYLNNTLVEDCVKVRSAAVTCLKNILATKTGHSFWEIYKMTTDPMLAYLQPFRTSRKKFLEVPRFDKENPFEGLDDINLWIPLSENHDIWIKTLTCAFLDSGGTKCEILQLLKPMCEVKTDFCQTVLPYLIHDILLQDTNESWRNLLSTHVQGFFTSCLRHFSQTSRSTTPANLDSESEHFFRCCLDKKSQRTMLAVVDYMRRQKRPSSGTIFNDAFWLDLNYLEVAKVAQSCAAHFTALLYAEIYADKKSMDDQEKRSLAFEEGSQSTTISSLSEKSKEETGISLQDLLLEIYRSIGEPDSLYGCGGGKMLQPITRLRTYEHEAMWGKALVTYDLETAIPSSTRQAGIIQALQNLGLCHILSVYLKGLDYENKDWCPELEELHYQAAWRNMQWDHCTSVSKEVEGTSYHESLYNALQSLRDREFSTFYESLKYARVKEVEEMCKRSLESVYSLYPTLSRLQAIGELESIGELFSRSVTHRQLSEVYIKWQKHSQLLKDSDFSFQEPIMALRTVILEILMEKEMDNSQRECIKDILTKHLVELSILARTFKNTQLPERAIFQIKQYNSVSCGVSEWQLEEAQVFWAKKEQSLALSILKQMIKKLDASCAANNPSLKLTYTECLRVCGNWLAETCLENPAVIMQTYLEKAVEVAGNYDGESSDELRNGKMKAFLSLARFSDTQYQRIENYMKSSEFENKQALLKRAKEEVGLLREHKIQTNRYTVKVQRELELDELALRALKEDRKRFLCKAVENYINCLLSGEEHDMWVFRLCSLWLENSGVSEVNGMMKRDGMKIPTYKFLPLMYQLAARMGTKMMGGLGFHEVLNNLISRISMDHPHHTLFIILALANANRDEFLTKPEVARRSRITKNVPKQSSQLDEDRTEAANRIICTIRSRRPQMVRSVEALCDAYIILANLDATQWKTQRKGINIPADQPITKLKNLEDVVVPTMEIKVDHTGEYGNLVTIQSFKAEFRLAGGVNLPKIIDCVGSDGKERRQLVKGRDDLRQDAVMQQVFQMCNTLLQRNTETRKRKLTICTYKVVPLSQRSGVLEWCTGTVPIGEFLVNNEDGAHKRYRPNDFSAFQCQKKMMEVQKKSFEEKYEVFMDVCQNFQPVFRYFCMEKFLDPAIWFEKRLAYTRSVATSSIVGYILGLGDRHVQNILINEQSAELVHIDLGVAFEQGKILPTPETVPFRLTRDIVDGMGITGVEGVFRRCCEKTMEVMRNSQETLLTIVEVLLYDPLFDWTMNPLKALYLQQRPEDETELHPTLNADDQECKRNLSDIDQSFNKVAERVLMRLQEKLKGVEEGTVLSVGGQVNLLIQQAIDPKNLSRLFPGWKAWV
Procedure, shortened: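 Cells received compounds in a 10-dose, 3-fold series from a 1 μM final top concentration, then 100 μM etoposide, for 1 hr at 37° C. They were then fixed with paraformaldehyde and permeabilized with 0.1% Triton X-100. After immunostaining, plates were scanned on an infrared imager.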

| SMILES | IC50 (DNA-PK) [nM] | IC50 (ATM) [nM] |
| --- | --- | --- |
| CN(C)CCCOc1ncc(-c2ccc3ncc4c(c3c2)C2(CC2)C(=O)N4C)cc1NS(=O)(=O)c1ccc(OC(F)(F)F)cc1 [Example 121, N-(2-(3-(Dimethylamino)propoxy)-5-(3′-methyl-2′-oxo-2′,3′-dihydrospiro[cyclopropane-1,1′-pyrrolo[2,3-c]quinolin]-8′-yl)pyridin-3-yl)-4-(trifluoromethoxy)benzenesulfonamide] | < 0.5 | 1 to 100 |
| CN(C)CCCOc1ncc(-c2ccc3c(c2)c2c(c[n+]3[O-])N(C)C(=O)C23CC3)cc1NS(=O)(=O)c1ccccc1 [Example 123, 8′-(6-(3-(Dimethylamino)propoxy)-5-(phenylsulfonamido)pyridin-3-yl)-3′-methyl-2′-oxo-2′,3′-dihydrospiro[cyclopropane-1,1′-pyrrolo[2,3-c]quinoline]5′-oxide] | 1 to 100 | 1 to 100 |
| CN1C(=O)C2(CC2)c2c1cnc1cc(F)c(-c3cnc(OCCCN4CCCC4)c(NS(=O)(=O)c4ccccc4)c3)cc21 [Example 124, N-(5-(7′-Fluoro-3′-methyl-2′-oxo-2′,3′-dihydrospiro[cyclopropane-1,1′-pyrrolo[2,3-c]quinolin]-8′-yl)-2-(3-(pyrrolidin-1-yl)propoxy)pyridin-3-yl)benzenesulfonamide] | 1 to 100 | 1 to 100 |
| CN(C)CCCOc1ncc(-c2ccc3ncc4c(c3c2)C2(CC2)C(=O)N4C)cc1NS(=O)(=O)c1cc(Cl)cc(Cl)c1 [Example 125, 3.5-Dichloro-IN-(2-(3-(dimethylamino)propoxy)-5-(3′-methyl-2′-oxo-2′,3′-dihydrospiro[cyclopropane-1,1′-pyrrolo[2,3-c]quinolin]-8′-yl)pyridin-3-yl)benzenesulfonamide] | < 0.5 | 1 to 100 |
| CN(C)CCCOc1ncc(-c2ccc3ncc4c(c3c2)C2(CC2)C(=O)N4C)cc1NS(=O)(=O)c1ccc(OC(F)F)cc1 [Example 126, 4-(Difluoromethoxy)-N-(2-(3-(dimethylamino)propoxy)-5-(3′-methyl-2′-oxo-2′,3′-dihydrospiro[cyclopropane-1,1′-pyrrolo[2,3-c]quinolin]-8′-yl)pyridin-3-yl)benzenesulfonamide] | < 0.5 | 1 to 100 |
| CN(C)CCCOc1ncc(-c2ccc3ncc4c(c3c2)C2(CC2)C(=O)N4C)cc1NS(=O)(=O)c1ccc(C(C)(C)C)cc1 [Example 127] | 1 to 100 | 1 to 100 |
| CN(C)CCCOc1ncc(-c2ccc3ncc4c(c3c2)C2(CC2)C(=O)N4C)cc1NS(=O)(=O)c1ccc(Cl)cc1 [Example 128, 4-Chloro-N-(2-(3-(dimethylamino)propoxy)-5-(3′-methyl-2′-oxo-2′,3′-dihydrospiro[cyclopropane-1,1′-pyrrolo[2,3-c]quinolin]-8′-yl)pyridin-3-yl)benzenesulfonamide hydrochloride] | < 0.5 | 1 to 100 |
| CN(C)CCCOc1ncc(-c2cc3c4c(cnc3cc2F)N(C)C(=O)C42CC2)cc1NS(=O)(=O)c1ccc(Cl)cc1 [Example 129, 4-Chloro-N-(2-(3-(dimethylamino)propoxy)-5-(7′-fluoro-3′-methyl-2′-oxo-2′,3′-dihydrospiro[cyclopropane-1,1′-pyrrolo[2,3-c]quinolin]-8′-yl)pyridin-3-yl) benzenesulfonamide hydrochloride] | 1 to 100 | 1 to 100 |
| CN(C)CCCOc1ncc(-c2ccc3ncc4c(c3c2)C2(CCC2)C(=O)N4C)cc1NS(=O)(=O)c1cncc(Cl)c1 [Example 130, 5-Chloro-N-(2-(3-(dimethylamino)propoxy)-5-(3′-methyl-2′-oxo-2′,3′-dihydrospiro[cyclobulane-1,1′-pyrrolo[2,3-c]quinolin]-8′-yl)pyridin-3-ylpyridine-3-sulfonamide hydrochloride] | 1 to 100 | 1 to 100 |
